# Measurements taken from patent publication US20240025871A1, “METHODS AND SYSTEMS FOR PRODUCTION OF FURFURAL” (SHELL OIL COMPANY, priority 2020, published 2024).
# “And” between values parts separate entries of the source, which are not always exact repeats. Equal values may be shown once. Read-outs that look alike come from different tables or passages of the source.
# Tests used:
# [1] = Partition of components between water+sulfolane phase and methylnaphthalene phase after dehydration reaction; format: physicochemical; conditions: room temperature; for [Conc]water+S: concentration in aqueous (water+sulfolane) phase; for [conc]MN: concentration in methylnaphthalene phase; for wt. %water+S: content in aqueous (water+sulfolane) phase; for wt. %MN: content in methylnaphthalene phase; for Pmol: ratio of absolute amounts polar/apolar phase, polar phase volume twice the apolar
# [2] = cited from earlier work
# [3] = octanol-water; water-soluble solvents, Table 3; cited from earlier work
# [4] = water-insoluble solvents, Table 2
# [5] = water-insoluble boronic acids, Table 1
compound,measurement,setting,value
Cc1cccc2ccccc12 [1-methylnaphtalene],[Conc]water+S,[1],3 mM
same,[conc]MN,[1],"7,000 mM"
same,wt. %water+S,[1]; listed as 1-MN,0.04 wt. %
same,wt. %water+S,[1]; listed as MN,< 0.1 wt. %
same,wt. %MN,[1],91 wt. %
same,Pmol,[1],0.0009
same,Water solubility g/L (20° C.),[2]; [4],0.026 g/L
CCCCc1ccc(B(O)O)cc1 [4-butylphenyl boronic acid],Water solubility g/L (20° C.),[2]; [5],Insoluble
CC(C)(C)c1ccc(B(O)O)cc1 [4-tert-Butylphenyl boronic acid],Water solubility g/L (20° C.),[2]; [5],Insoluble
CCc1ccc(O)cc1 [4Et-phenol],Water solubility g/L (20° C.),[2]; [4],6.1 g/L
c1ccc2occc2c1 [Benzofuran],Water solubility g/L (20° C.),[2]; [4],insoluble
COCCOCCOC [Diglyme],LogP,[3],−0.8
O=Cc1ccco1 [Furfural],[Conc]water+S,[1],103 mM
same,[conc]MN,[1],144 mM
same,wt. %water+S,[1],0.88 wt. %
same,wt. %water+S,[1]; listed as furfural,< 1 wt. %
same,wt. %MN,[1],1.3 wt. %
same,Pmol,[1],1.43
same,share of overall furfural produced contained in non-aqueous MN-rich phase,[1],41%
O=C1CCCO1 [gamma butyrolactone],LogP,[3],−0.76
CC1CCC(=O)O1 (centres unmarked) [gamma valerolactone],LogP,[3],−0.27
CN1CCCC1=O [nMe-pyrrolidone],LogP,[3],−0.4
Cc1ccccc1B(O)O [o-tolylboronic acid],Water solubility g/L (20° C.),[2]; [5],Slightly
CCCCCCCCB(O)O [octylboronic acid],Water solubility g/L (20° C.),[2]; [5],Insoluble
same,water solubility (in words),[2],water-insoluble
OB(O)c1ccccc1 [phenylboronic acid],[Conc]water+S,[1],125 mM
same,[conc]MN,[1],340 mM
same,wt. %water+S,[1]; listed as PBA,< 1.3 wt. % and 1.3 wt. %
same,wt. %MN,[1],3.7 wt. %
same,Pmol,[1],0.74
O=S1(=O)CCCC1 [sulfolane],[Conc]water+S,[1],"5,100 mM"
same,[conc]MN,[1],370 mM
same,wt. %water+S,[1],54 wt. %
same,wt. %MN,[1],4 wt. %
same,wt. %MN,[1]; listed as Sulfolane,4.0 wt. %
same,Pmol,[1],13.8
O [water],[Conc]water+S,[1],"27,600 mM"
same,[conc]MN,[1],92 mM
same,wt. %water+S,[1],44 wt. %
same,wt. %MN,[1],0.15 wt. %
same,Pmol,[1],601
